From BindingDB's records for patent US20130102619 (2013)

target: T1, Orexin receptor type 2 (Homo sapiens, UniProt O43614); assay: FLIPR Ca2+ Flux Assay; details: 37 °C
T1 sequence (O43614 whole entry): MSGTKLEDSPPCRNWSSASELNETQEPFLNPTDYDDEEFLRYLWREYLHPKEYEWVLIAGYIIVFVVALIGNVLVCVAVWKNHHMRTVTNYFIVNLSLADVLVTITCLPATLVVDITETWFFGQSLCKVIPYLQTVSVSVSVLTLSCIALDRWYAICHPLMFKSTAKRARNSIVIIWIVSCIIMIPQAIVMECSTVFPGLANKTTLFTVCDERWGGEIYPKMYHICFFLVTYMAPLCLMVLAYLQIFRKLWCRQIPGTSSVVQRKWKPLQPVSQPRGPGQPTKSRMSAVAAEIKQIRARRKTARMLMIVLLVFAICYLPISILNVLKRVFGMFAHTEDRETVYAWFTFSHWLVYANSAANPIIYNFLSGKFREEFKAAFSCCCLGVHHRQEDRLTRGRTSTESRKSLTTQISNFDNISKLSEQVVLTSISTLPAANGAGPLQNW
Experimental: Chinese hamster ovary (CHO) cells expressing the rat orexin-1 receptor or the human orexin-2 receptor, are grown in Iscove's modified DMEM containing 2 mM L-glutamine, […], 1% hypoxanthine-thymidine supplement, 100 U/ml penicillin, 100 ug/ml streptomycin and 10% heat-inactivated fetal calf serum (FCS). The cells are seeded at 20,000 cells/well into Becton-Dickinson black 384-well clear bottom sterile plates coated with poly-D-lysine. All reagents were from GIBCO-Invitrogen Corp. The seeded plates are incubated overnight at 37° C. and 5% CO2. Ala-6,12 human orexin-A as the agonist is prepared as a 1 mM stock solution in 1% bovine serum albumin (BSA) and diluted in assay buffer (HBSS containing 20 mM HEPES, 0.1% BSA and 2.5 mM probenecid, pH7.4) for use in the assay at a final concentration of 70 pM. Test compounds are prepared as 10 mM stock solution in DMSO, then diluted in 384-well plates, first in DMSO, then assay buffer. On the day of the assay, cells are washed 3 times with 100 ul assay buffer and then incubated for 60 min (37° C., 5% CO2) in 60 ul assay buffer containing 1 uM Fluo-4AM ester, 0.02% pluronic acid, and 1% BSA. The dye loading solution is then aspirated and cells are washed 3 times with 100 ul assay buffer. 30 ul of that same buffer is left in each well. Within the Fluorescent Imaging Plate Reader (FLIPR, Molecular Devices), test compounds are added to the plate in a volume of 25 ul, incubated for 5 min and finally 25 ul of agonist is added. Fluorescence is measured for each well at 1 second intervals for 5 minutes and the height of each fluorescence peak is compared to the height of the fluorescence peak induced by 70 pM Ala-6,12 orexin-A with buffer in place of antagonist.

Structure (SMILES) | IC50
C[C@@H]1CC[C@@H](Oc2cc(C#N)ccn2)CN1C(=O)c1ccccc1-n1nccn1 [US20130102619, 1] | 12 nM
C[C@@H]1CC[C@@H](Oc2cc(C#N)ccn2)CN1C(=O)c1ccccc1-c1ncccn1 [US20130102619, 2] | 28 nM
Cc1nc(-c2ccccc2C(=O)N2C[C@H](Oc3cc(C#N)ccn3)CC[C@H]2C)no1 [US20130102619, 3] | 18 nM
